Experiment: Recrystallization of CoQ10 from warm oil/alcohol solution on cooling to room temperature
Assay type: physicochemical
Conditions: cooled to room temperature (25° C.)
Procedure: (§1) 30 g of lecithin were dissolved in 100 g of alcohol and added with stirring to 520 g of water and 200 g of glycerin. 10 g of Coenzyme Q10 (ubichinone) [CoQ10] were dissolved at 40° C. in 40 g of vegetable oil and 100 g of alcohol (ethanol). […] Therefore, the CoQ10 solution, having a temperature of 40° C., was added to the lecithin/alcohol/glycerin/water mixture and then homogenized six times at 1200 bar (1.2·10^8 Pa) using a high pressure homgenizer of Microfluidics Corp (MT 110®), Thereby, the alcohol was homogeneously distributed in the nanoemulsion. An orange transparent nanoemulsion was obtained.
as §1, with “50 g” for “30 g”, “to 430” for “to 520”, “glycerin. 80” for “glycerin. 10”, “at 45°” for “at 40°”, “pressure homogenizer” for “pressure homgenizer”, “(MT 110®).” for “(MT 110®),”

COC1=C(OC)C(=O)C(C/C=C(\C)CC/C=C(\C)CC/C=C(\C)CC/C=C(\C)CC/C=C(\C)CC/C=C(\C)CC/C=C(\C)CC/C=C(\C)CC/C=C(\C)CCC=C(C)C)=C(C)C1=O [CoQ10, Coenzyme Q10]
behaviour of CoQ10 solution on cooling (10 g CoQ10 dissolved at 40° C. in 40 g vegetable oil and 100 g alcohol): most of the CoQ10 recrystallizes out from the solution after some hours
behaviour of CoQ10 solution on cooling (80 g CoQ10 dissolved at 45° C. in 40 g vegetable oil and 100 g alcohol): most of the CoQ10 recrystallized out from the solution after some hours
